From publication PMC9636582 (The Journal of Biological Chemistry, 2022)
“Also recorded” adds a separate entry of the source.

Legend:
[1] = tested on: human intestinal organoids; experiment: intracellular triglyceride in human intestinal organoids; assay type: cell-based; conditions: organoids pretreated with 500 μM oleic acid 48 h, then 1 μM GW1516 or 30 μM fatty acids 24 h
GAL4-PPARδ LBD = biological target: T1, GAL4-PPARδ LBD (Homo sapiens, UniProt Q03181); experiment: GAL4-PPARδ LBD luciferase reporter assay in HEK293 cells; assay type: cell-based; conditions: for EC50: GAL4-PPARδ LBD, calculated from luciferase activity with Quest Graph EC50 Calculator; for PPARδ activation compared with dietary PUFAs (in words): 30 μM fatty acids, Fig. 2A; for PPARδ activation (in words): 100 μM fatty acids, Fig. 1B
T1 construct: chimeric receptors containing the LBD of various NRs; expressed in transfected cells; host or cells: HEK293
T1 sequence (Q03181 211-439 limits assumed): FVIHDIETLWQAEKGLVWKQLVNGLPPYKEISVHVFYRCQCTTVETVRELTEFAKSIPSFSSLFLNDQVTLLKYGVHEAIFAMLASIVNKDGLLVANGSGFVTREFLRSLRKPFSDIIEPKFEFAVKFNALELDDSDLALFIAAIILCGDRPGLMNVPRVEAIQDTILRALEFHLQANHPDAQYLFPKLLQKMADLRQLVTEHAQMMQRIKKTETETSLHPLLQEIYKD

full-length PPARδ = biological target: T2, full-length PPARδ (Homo sapiens, UniProt Q03181); experiment: full-length PPARδ PPRE luciferase reporter assay in HEK293 cells; assay type: cell-based; conditions: Fig. 1C
T2 construct: expressed in transfected cells; host or cells: HEK293
T2 sequence (Q03181 1-441): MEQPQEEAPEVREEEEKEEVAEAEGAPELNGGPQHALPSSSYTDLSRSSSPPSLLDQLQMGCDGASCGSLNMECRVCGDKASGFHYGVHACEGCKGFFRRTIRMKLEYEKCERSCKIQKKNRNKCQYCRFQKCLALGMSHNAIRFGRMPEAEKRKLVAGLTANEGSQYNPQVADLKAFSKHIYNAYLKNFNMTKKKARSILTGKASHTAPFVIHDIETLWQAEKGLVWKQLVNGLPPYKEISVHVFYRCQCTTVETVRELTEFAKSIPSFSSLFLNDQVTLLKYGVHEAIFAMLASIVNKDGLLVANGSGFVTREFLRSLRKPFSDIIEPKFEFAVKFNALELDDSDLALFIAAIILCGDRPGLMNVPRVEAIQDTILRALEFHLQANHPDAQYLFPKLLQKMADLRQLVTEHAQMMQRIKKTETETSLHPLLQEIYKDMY
Source text: Luciferase activities were normalized to β-galactosidase activities.

[2] = tested on: human intestinal organoids; experiment: fatty acid β-oxidation activity in living organoids (FAOBlue); assay type: cell-based; conditions: organoids pretreated with 500 μM oleic acid 48 h, then 1 μM GW1516 or 30 μM fatty acids 24 h
[3] = biological target: T3, recombinant human PPARδ LBD protein (Homo sapiens, UniProt Q03181); experiment: [14C] DHA competitive ligand-binding assay; conditions: 100 nM [14C] DHA, 1 μM nonlabeled fatty acids, overnight at 4 °C
T3 construct: Human PPARδ LBD (140–442) construct was cloned into a pGEX-4T1 vector; GST (N, cleaved yes); made in house; host or cells: Escherichia coli BL21 (DE3) pLys
T3 sequence (Q03181 140-441 limits assumed): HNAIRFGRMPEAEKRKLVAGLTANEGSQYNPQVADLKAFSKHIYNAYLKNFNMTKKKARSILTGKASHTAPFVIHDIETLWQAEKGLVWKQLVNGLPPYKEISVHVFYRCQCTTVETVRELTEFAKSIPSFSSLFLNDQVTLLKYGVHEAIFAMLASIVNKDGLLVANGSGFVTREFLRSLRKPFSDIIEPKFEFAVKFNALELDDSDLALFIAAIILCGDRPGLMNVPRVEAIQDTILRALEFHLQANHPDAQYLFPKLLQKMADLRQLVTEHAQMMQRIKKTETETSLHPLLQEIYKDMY
Procedure: To identify the mechanism underlying the activation of PPARδ by GLA-derived fatty acids, we performed a [^14C] DHA competitive ligand-binding assay describing the displacement of ligands from receptors with recombinant human PPARδ LBD protein produced by a bacterial expression system (Figs. 4, A and B and S2). PPARδ LBD or glutathione-S-transferase (GST) recombinant protein was incubated with both [^14C] […] A competitive inhibition of [^14C] DHA binding was analyzed as a direct binding to PPARδ LBD (see Experimental procedures). […] DHA binding to PPARδ LBD competitively (Fig. 4C).
Human PPARδ LBD (140–442) construct was cloned into a pGEX-4T1 vector (GE Healthcare Life Sciences) at the restriction enzyme site of SmaI and XhoI. The protein was expressed in Eschericia coli BL21 (DE3) pLys cells (Novagen) as a C-terminal fusion to a GST tag with a thrombin cleavage site. A single colony was cultured in 2 ml of LB media supplemented with 20 μg/ml of ampicillin and 30 μg/ml of chloramphenicol at 37 °C and 200 rpm for 18 h. The preculture was then transferred to 1 l of LB media until the A600 reached 0.6 to 0.8. IPTG was added to produce a final concentration of 0.4 mM, and expression was continued at 24 °C and 150 rpm for 18 h. Cells were collected using centrifugation, and pellets were resuspended in lysis buffer comprising 50 mM Tris–HCl (pH 7.5), 150 mM NaCl, 5 mM DTT, 1 mM EDTA, and 10% glycerol before sonication was performed. The supernatant was then collected using centrifugation at 100,000g and 4 °C for 70 min, after which it was loaded onto GST Accept (nacalai tesque) and equilibrated using the lysis buffer. Subsequently, the column was washed using five column volumes of the lysis buffer and thrombin cleavage buffer comprising 20 mM Tri–HCl (pH 8.4), 150 mM NaCl, 2.5 mM CaCl2, and 1 mM DTT, respectively. The GST tag was removed via digestion using biotinylated thrombin (Merck) for 18 h at 4 °C. The biotinylated thrombin was removed using Dynabeads M-280 streptavidin (Veritas). The purity of the target proteins was verified using SDS-PAGE.
A ligand-binding assay was performed as described previously with minor modifications ([72]). Briefly, purified recombinant human PPARδ LBD protein was incubated with 100 nM ([…]) [^14C] DHA in GP buffer (137 mM NaCl, 8.1 mM Na2HPO4, 2.68 mM KCl, 1.47 mM KH2PO4, 1% sodium azide, and 0.1% gelatin) overnight at 4 °C with or without various competitors (1 μM), including DHA and GLA-derived fatty acids. Unbound ligands were removed by adsorption to 3% dextran-coated charcoal, and the supernatant was collected. The PPARδ-bound [^14C] DHA was measured using a scintillation counter (PerkinElmer).

GAL4-PPARα LBD = biological target: T4, GAL4-PPARα LBD (Homo sapiens, UniProt Q07869); experiment: GAL4-PPARα LBD luciferase reporter assay in HEK293 cells; assay type: cell-based; conditions: GAL4-PPARα LBD, calculated from luciferase activity with Quest Graph EC50 Calculator
T4 construct: chimeric receptors containing the LBD of various NRs; expressed in transfected cells; host or cells: HEK293
T4 sequence (Q07869 239-466 limits assumed): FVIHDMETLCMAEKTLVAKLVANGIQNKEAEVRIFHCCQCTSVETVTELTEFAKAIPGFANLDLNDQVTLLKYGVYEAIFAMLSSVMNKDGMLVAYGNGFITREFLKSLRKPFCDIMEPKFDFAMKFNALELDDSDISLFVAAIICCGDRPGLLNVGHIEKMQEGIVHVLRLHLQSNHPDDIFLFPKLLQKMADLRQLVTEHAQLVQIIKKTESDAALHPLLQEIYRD

| SMILES | intracellular triglyceride levels [1] | EC50 (GAL4-PPARδ LBD) | transactivation of full-length PPARδ (in words) (full-length PPARδ) | fatty acid β-oxidation activity [2] | competitive displacement of [14C] DHA binding to PPARδ LBD [3] | EC50 (GAL4-PPARα LBD) | PPARδ activation compared with dietary PUFAs (in words) (GAL4-PPARδ LBD) | PPARδ activation (in words) (GAL4-PPARδ LBD) |
| --- | --- | --- | --- | --- | --- | --- | --- | --- |
| CCCCC/C=C\C/C=C\C/C=C\CCCCC(=O)O [GLA, γ-linolenic acid, reference compound] | not | 509 µM | not | not | only weak competition | 11 µM | – | – |
| CCCCCC(O)CCC=CCC=CCCCCC(=O)O (stereo not drawn) [γHYD, 13-hydroxy-cis-6,cis-9-octadecadienoic acid] | reduced intracellular triglyceride accumulation | 10.6 µM | activated PPARδ potently | enhanced fatty acid β-oxidation | displaced [^14C] DHA binding to PPARδ LBD competitively; also recorded: comparable ligand-binding abilities to that of the C22 fatty acid DHA | 2.84 µM | activated PPARδ more robustly than DHA and eicosapentaenoic acid as well as GLA | more robust PPARδ activation than their original compound, GLA |
| CCCCCC(=O)CCC=CCC=CCCCCC(=O)O [γKetoD, 13-oxo-cis-6,cis-9-octadecadienoic acid] | reduced intracellular triglyceride accumulation | 20.3 µM | activated PPARδ potently | enhanced fatty acid β-oxidation | displaced [^14C] DHA binding to PPARδ LBD competitively; also recorded: comparable ligand-binding abilities to that of the C22 fatty acid DHA | 4.14 µM | activated PPARδ more robustly than DHA and eicosapentaenoic acid as well as GLA | more robust PPARδ activation than their original compound, GLA |
